Experimental data taken from ChEMBL document CHEMBL3228022, “Synthesis of 2,3,4,4a,5,9b-hexahydro-1H-pyrido[4,3-b]indole derivatives and their central nervous system activities” (1979).
Active and inactive are the calls of the source. The rule behind the calls is not given here.

How the values were obtained:
[1] = test system: Rattus norvegicus; experiment: Neuroleptic activity in Wistar HLA rat assessed as inhibition of methamphetamine-induced stereotyped behavior at 1 mg/kg, ip administered 20 mins before methamphetamine challenge measured every 30 mins for 3 hrs followed by every 1 hr for further 3 hrs; format: functional; parameters: Activity: scale not given: the % may be the effect or the level left; details: route intraperitoneal
[2] = test system: Rattus norvegicus; experiment: Neuroleptic activity in Wistar HLA rat assessed as inhibition of methamphetamine-induced stereotyped behavior at 0.1 mg/kg, ip administered 20 mins before methamphetamine challenge measured every 30 mins for 3 hrs followed by every 1 hr for further 3 hrs; format: functional; parameters: scale not given: the % may be the effect or the level left; details: route intraperitoneal
[3] = test system: Rattus norvegicus; experiment: Neuroleptic activity in Wistar HLA rat assessed as inhibition of methamphetamine-induced stereotyped behavior at 0.5 mg/kg, ip administered 20 mins before methamphetamine challenge measured every 30 mins for 3 hrs followed by every 1 hr for further 3 hrs; format: functional; parameters: scale not given: the % may be the effect or the level left; details: route intraperitoneal
[4] = test system: Rattus norvegicus; experiment: Neuroleptic activity in Wistar HLA rat assessed as inhibition of methamphetamine-induced stereotyped behavior at 0.2 mg/kg, ip administered 20 mins before methamphetamine challenge measured every 30 mins for 3 hrs followed by every 1 hr for further 3 hrs; format: functional; parameters: scale not given: the % may be the effect or the level left; details: route intraperitoneal
[5] = test system: Rattus norvegicus; experiment: Neuroleptic activity in Wistar HLA rat assessed as stimulation of methamphetamine-induced stereotyped behavior at 10 mg/kg, ip administered 20 mins before methamphetamine challenge measured every 30 mins for 3 hrs followed by every 1 hr for further 3 hrs; format: functional; details: route intraperitoneal
[6] = test system: Mus musculus; experiment: Neuroleptic activity in STD-ddy mouse assessed as inhibition of locomotion at 100 mg/kg, po measured for 3 mins; format: functional; details: 0.05 h
[7] = test system: Rattus norvegicus; experiment: Neuroleptic activity in sc dosed Wistar HLA rat assessed as inhibition of apomorphine-induced gnawing administered 1 hr before apomorphine challenge measured 5 to 20 mins; format: functional
[8] = test system: Rattus norvegicus; experiment: Neuroleptic activity in Wistar HLA rat assessed as stimulation of methamphetamine-induced stereotyped behavior at 2 mg/kg, ip administered 20 mins before methamphetamine challenge measured every 30 mins for 3 hrs followed by every 1 hr for further 3 hrs; format: functional; details: route intraperitoneal
[9] = test system: Rattus norvegicus; experiment: Neuroleptic activity in Wistar HLA rat assessed as stimulation of methamphetamine-induced stereotyped behavior at 5 mg/kg, ip administered 20 mins before methamphetamine challenge measured every 30 mins for 3 hrs followed by every 1 hr for further 3 hrs; format: functional; details: route intraperitoneal
[10] = test system: Rattus norvegicus; experiment: Neuroleptic activity in po dosed Wistar HLA rat assessed as inhibition of intracranial self-stimulation measured for 1 to 24 hrs; format: functional
[11] = test system: Mus musculus; experiment: Neuroleptic activity in STD-ddy mouse assessed as muscle relaxation at 100 mg/kg, po after 20 mins; format: functional, organism-based; parameters: dose 100 mg/kg
[12] = test system: Mus musculus; experiment: Neuroleptic activity in po dosed STD-ddy mouse assessed as inhibition of locomotion measured for 3 mins; format: functional; details: 0.05 h
[13] = test system: Mus musculus; experiment: Neuroleptic activity in STD-ddy mouse assessed as catalepsy at 100 mg/kg, po measured up to 30 secs; format: functional, organism-based; parameters: dose 100 mg/kg
[14] = test system: Mus musculus; experiment: Neuroleptic activity in po dosed STD-ddy mouse assessed as inhibition of methamphetamine-induced stereotyped behavior administered 100 mins before methamphetamine challenge measured for 20 mins; format: functional
[15] = test system: Mus musculus; experiment: Neuroleptic activity in po dosed STD-ddy mouse assessed as catalepsy measured up to 30 secs; format: functional
[16] = test system: Mus musculus; experiment: Neuroleptic activity in STD-ddy mouse assessed as inhibition of locomotion at 10 mg/kg, po measured for 3 mins; format: functional; details: 0.05 h
[17] = test system: Rattus norvegicus; experiment: Neuroleptic activity in Wistar HLA rat assessed as inhibition of methamphetamine-induced stereotyped behavior at 2 mg/kg, ip administered 20 mins before methamphetamine challenge measured every 30 mins for 3 hrs followed by every 1 hr for further 3 hrs; format: functional; parameters: Activity: scale not given: the % may be the effect or the level left; details: route intraperitoneal
[18] = test system: Rattus norvegicus; experiment: Neuroleptic activity in Wistar HLA rat assessed as inhibition of methamphetamine-induced stereotyped behavior at 10 mg/kg, ip administered 20 mins before methamphetamine challenge measured every 30 mins for 3 hrs followed by every 1 hr for further 3 hrs; format: functional; parameters: Activity: scale not given: the % may be the effect or the level left; details: route intraperitoneal
[19] = test system: Rattus norvegicus; experiment: Neuroleptic activity in Wistar HLA rat assessed as inhibition of methamphetamine-induced stereotyped behavior at 5 mg/kg, ip administered 20 mins before methamphetamine challenge measured every 30 mins for 3 hrs followed by every 1 hr for further 3 hrs; format: functional; parameters: Activity: scale not given: the % may be the effect or the level left; details: route intraperitoneal
[20] = test system: Mus musculus; experiment: Neuroleptic activity in po dosed STD-ddy mouse assessed as inhibition of active avoidance; format: functional
[21] = Rattus norvegicus, Wistar HLA, ip

SMILES: O=C(CCCN1CCC(O)(c2ccc(Cl)cc2)CC1)c1ccc(F)cc1 [HALOPERIDOL]
- inhibition in vivo at 1 mg/kg [1, 21]: > 75%
- Activity [2]: 0%
- Activity [3]: >75%
- Activity [4]: 25%

SMILES: Cc1ccc2c(c1)[C@H]1CN(C)CC[C@H]1N2 (relative stereo) [STOBADINE]
- Activity [1]: 0%
- Activity [5]: >75%
- inhibition in vivo at 100 mg/kg [6]: 37.6%
- ED50 [7]: > 100 mg/kg
- Activity [8]: 25%
- Activity [9]: 50%
- ED50 [10]: > 100 mg/kg
- Activity [11]: inactive
- ED50 [12]: 150 mg/kg
- Activity [13]: inactive
- ED50 [14]: > 100 mg/kg
- ED50 [15]: > 150 mg/kg

SMILES: CC(=O)CCN1CC[C@@H]2Nc3ccc(C)cc3[C@H]2C1 (relative stereo)
- inhibition in vivo at 100 mg/kg [6]: -15.5%
- Activity [11]: inactive

SMILES: Cc1ccc2c(c1)[C@H]1CN(CC(=O)c3ccccc3)CC[C@H]1N2 (relative stereo)
- inhibition in vivo at 100 mg/kg [6]: 29.8%
- Activity [11]: inactive
- Activity [13]: inactive

SMILES: Cl.O=C(CCCN1CC[C@H]2Nc3ccc(F)cc3[C@H]2C1)c1ccc(F)cc1 (relative stereo)
- Activity [1]: 0%
- inhibition in vivo at 100 mg/kg [6]: 91.2%
- inhibition in vivo at 10 mg/kg [16]: 47.2%
- Activity [17]: 0%
- inhibition in vivo at 10 mg/kg [18, 21]: 50%
- inhibition in vivo at 5 mg/kg [19, 21]: 25%

SMILES: Cc1ccc2c(c1)[C@H]1CN(CCCC(=O)c3ccc(F)cc3)CC[C@@H]1N2C.O=C(O)/C=C\C(=O)O (relative stereo)
- inhibition in vivo at 100 mg/kg [6]: 97.4%
- ED50 [10]: 8.44 mg/kg
- ED50 [12]: 14.5 mg/kg
- Activity [13]: Active
- ED50 [15]: 55.9 mg/kg
- ED50 [20]: 11.5 mg/kg

SMILES: CC(=O)N1c2ccc(C)cc2[C@H]2CN(CCCC(=O)c3ccc(F)cc3)CC[C@H]21 (relative stereo)
- inhibition in vivo at 100 mg/kg [6]: 21.7%
- Activity [11]: inactive
- Activity [13]: inactive

SMILES: Cc1ccc2c(c1)[C@H]1CN(Cc3ccccc3)CC[C@@H]1N2 (relative stereo)
- inhibition in vivo at 100 mg/kg [6]: 17.9%
- Activity [11]: inactive

SMILES: Cc1ccc2c(c1)[C@H]1CN(C)CC[C@@H]1N2 (relative stereo)
- inhibition in vivo at 100 mg/kg [6]: 79.7%
- Activity [11]: inactive
- Activity [13]: inactive

SMILES: Cc1ccc2c(c1)[C@H]1CN(CCCN3c4ccccc4Sc4cc(Cl)ccc43)CC[C@H]1N2.Cl (relative stereo)
- Activity [1]: 0%
- inhibition in vivo at 100 mg/kg [6]: 96.9%
- inhibition in vivo at 10 mg/kg [16]: 56.6%
- Activity [11]: inactive
- Activity [17]: 0%
- Activity [18]: 0%
- Activity [19]: 0%

SMILES: Fc1ccc2c(c1)[C@H]1CN(Cc3ccccc3)CC[C@@H]1N2 (relative stereo)
- inhibition in vivo at 100 mg/kg [6]: 76.1%
- Activity [11]: inactive
- Activity [13]: inactive

SMILES: CCc1ccc2c(c1)[C@H]1CN(CCCC(=O)c3ccc(F)cc3)CC[C@H]1N2.Cl (relative stereo)
- Activity [5]: >75%
- inhibition in vivo at 100 mg/kg [6]: 44%
- Activity [8]: 25%
- Activity [9]: >75%
- Activity [11]: inactive
- Activity [13]: inactive

SMILES: CCN1c2ccc(C)cc2[C@H]2CN(CCCC(=O)c3ccc(F)cc3)CC[C@H]21.Cl (relative stereo)
- Activity [1]: 0%
- Activity [5]: >75%
- inhibition in vivo at 100 mg/kg [6]: 92.9%
- inhibition in vivo at 10 mg/kg [16]: 34%
- Activity [9]: >75%
- Activity [11]: Active
- Activity [13]: Active
- Activity [17]: 0%

SMILES: CN1c2ccc(F)cc2[C@H]2CN(CCCC(=O)c3ccc(F)cc3)CC[C@@H]21.O=C(O)/C=C\C(=O)O (relative stereo)
- inhibition in vivo at 100 mg/kg [6]: 92.7%
- ED50 [10]: 7.37 mg/kg
- ED50 [12]: 12.8 mg/kg
- ED50 [15]: 30.7 mg/kg
- ED50 [20]: 4.58 mg/kg

SMILES: Cc1ccc2c(c1)[C@H]1CN(CCO)CC[C@@H]1N2 (relative stereo)
- inhibition in vivo at 100 mg/kg [6]: -5.6%
- Activity [11]: inactive
- Activity [13]: inactive
